Source: US7459479B2, “Benzylated PDE4 inhibitors” (Biolipox AB, priority 2000, dated 2008)

What was measured:
[1] = test system: PDE4 (human promonocytic U937 cells); experiment: PDE4 inhibition, Phosphodiesterase [3H] cAMP SPA enzyme assay with U937 extract; format: biochemical; conditions: 1 μM [3H] cAMP
Excerpt: A test compound may be screened for activity against 11 of the major classes of mammalian cyclic nucleotide phosphodiesterase (termed PDE 1 through 11). These PDE's may use cAMP or cGMP or both cyclic nucleotides as substrates. […] PDE's for some of the various assays may be fully or partially purified from the following cells/tissues: PDE 1 (bovine heart), PDE 2 (human platelets), PDE 3 (human platelets), PDE4 (human promonocytic U937 cells) and PDE 5 (human platelets).
In the following descriptions, amounts are exemplary, and may be varied. […] Sonicated cell extracts are then centrifuged at 70,000 g for 30 minutes and supernatants removed. Sucrose is added to a final concentration of 0.25 M, then the extracts are aliquoted and stored at −80° C.
Briefly, the assay is run for 60 minutes at room temperature in 50 μL volumes in 1 μM [^3H] cAMP, 50 mM Tris Cl, 10 mM MgCl2 pH 7.5. U937 extract is added such that less than 10% of substrate was consumed. Test compound or vehicle is added to the desired concentration. […] Reactions are performed in duplicate. Reactions are terminated with 50 μl of Yttrium SPA beads and then counted on a Packard Scintillation counter (TopCount™) for 1 minute.

[2] = target: T1, HARBS site of PDE4; experiment: Displacement of [3H]-ROLIPRAM from the high affinity binding site (HARBS) in mouse brain membranes; conditions: for IC50: mouse brain membranes, [3H]-ROLIPRAM displacement
T1 construct: HARBS IC50; other: mouse brain membranes, [3H]-ROLIPRAM displacement; other: mouse brain; other: relative to ROLIPRAM (25, 26) or
Method: (§1) In order to perform this assay, female CD1 mice are sacrificed via the intraperitoneal injection of 100 μL ethanol, and the brain tissue is homogenized in 5 mL of ice-cold Tris-HCl, pH 8.00 supplemented with 1.2 mM MgCl2, 1 mM benzamidine (Sigma; Catalogue No. B 6506) and 0.1 mM PMSF (Sigma; Catalogue No. P 7626). The suspension is centrifuged twice at 30,000×G at 4° C. and then the supernatant discarded. The pellet is resuspended in buffer, and adjusted to a protein concentration of 0.5 mg/mL. Compounds to be tested are dissolved in DMSO and pipetted in triplicate into a 96 well microplate at concentrations ranging from 1 to 30,000 nM. […] The plate is incubated at 4° C. for 1 hour. Contents of the plate are aspirated through a Whatman GF/C filterplate, and rinsed with 4×200 μL ice-cold buffer. The plate is dried overnight, and then 30 μL of Microscint 20 (Packard; Catalogue No. 6013621) is added to each well, and plate is read in the scintillation counter with a sampling time of 2 minutes/well. […] Triplicate determinations should be performed at each concentration.

[3] = test system: HARBS site of PDE4; experiment: as above; conditions: for Ratio (PDE4/HARBS): ratio of PDE4 catalytic IC50 to HARBS IC50
Method: as §1

[4] = test system: ferret model of emesis; experiment: Emetic threshold after intravenous infusion in the ferret model of emesis; format: in vivo, ferret (Mustela putorius furo); conditions: for Emetic Threshold: 5 minute intravenous infusion, 3 hour observation
Excerpt: The most recognized pre-clinical animal model for emesis is the ferret. The ferret undergoes a very characteristic, reproducible and well-documented series of behavioral responses, including backward walking, pawing of the mouth, arching of the back, retching and vomiting when dosed with an emetogenic compound. With respect to PDE4 inhibitors their emetogenic potential has been correlated with the ability of compounds to bind to a conformer of the enzyme to which ROLIPRAM™ binds with nanomolar affinity (the HARBS binding site). The central nervous system (CNS) and emetic effects of PDE4 inhibitors are therefore thought in large part to be due to the interaction of these compounds with this particular conformer of PDE4 which is especially prevalent in both the central and peripheral nervous system as well as in cells of the lumen of the gastrointestinal tract (i.e., parietal cells of the stomach).
Adult male ferrets (Mustela putorius furo, sable, 0.75-1.5 kg, Marshall Farms, USA) were quarantined and acclimated to the testing facility for seven days prior to initiation of the study. For intravenous infusion dosing, a catheter was surgically inserted in the jugular vein a minimum of 14 hours prior to administration of test articles and the catheter was maintained for patency by flushing with heparin solution daily. After surgery for catheter insertion the ferrets were individually housed in cages. Animals were fasted 12-16 hours prior to dosing and during the behavioral assessment period. They were returned to normal food diet after the observation periods. Animals found acceptable for inclusion in the study were randomly assigned to the each of the study groups (n=3 for each of the two treatment groups and n=3 for the vehicle negative control group).
Test compounds (ROLIPRAM™ and Compound 25) were freshly dissolved on the day of dosing in the vehicle, polyethylene glycol (PEG) 200 (Sigma catalogue number P-3015), to the required concentration in order to achieve the target dose. Animals in the control (PEG 200) and treatment (ROLIPRAM™ or Compound 25) groups were administered the dosing formulation at 3 ml/kg by intravenous infusion over a 5 minute period via the catheter inserted in the jugular. Continual observation for signs of emetic behavior were begun for each of the animals in the study groups immediately following completion of the 5 minute dosing period and for a period of three hours. Sequential recordings of emetic behaviour were noted on a separate data collection sheet for each animal which included the time of onset of each event as well as the duration and nature of the event (i.e., retching, gagging, vomiting, back arching, backward walking etc.).
The target doses for each of the test articles are shown below in Table 3. If animals expressed no emetic behaviour at the lowest dosage then animals were dosed again with semi-log increasing doses of test article and the three hour observation period repeated until the emetic threshold (lowest of test doses causing emesis) was reached or until the highest of the 4 target doses was completed. There was a 24 hr. washout period between each of the successive ascending doses of test article to allow the compound to clear the animals' system. […] If the emetic response was minimal at a particular dose level then the next dose level could be performed to confirm the threshold level.

Structure (SMILES) | IC50 [1] [nM] | IC50 [2] [nM] | Ratio (PDE4/HARBS) [3] | Emetic Threshold ([4]; ferrets) [mg/kg] | Emetic Threshold ([4]; ferrets, listed as compound 25) | higher doses required to achieve emesis compared to rolipram ([4]; ferrets, i.v. infusion) | emetic behaviour ([4]; up to and including highest dose level tested (3 mg/kg) i.v. infusion) | reduction of HARBS binding affinity relative to parent non-benzylated compound ([2]; relative to ROLIPRAM (25, 26) or ARIFLO (41)) [fold] | emetic signs ([4]; 0.1 mg/kg i.v. infusion) | ferrets exhibiting a definite emetic response ([4]; 0.3 mg/kg i.v. infusion, n=3) | mild retches observed ([4]; 0.3 mg/kg i.v., in one ferret, over 9 minutes starting at 10 minutes post-dosing) | greater affinity to high affinity site than the concentration required for half-maximal inhibition of PDE4 catalytic activity [3] [fold]
COc1ccc([C@]2(C#N)CC[C@@H](C(=O)O)CC2)cc1OC1CCCC1 [ARIFLO ™, reference compound] | 180 | 76 | 2.4 |  |  |  |  |  |  |  |  | 
COc1cc(CC2C(=O)NCC2c2ccc(OC)c(OC3CCCC3)c2)ccc1OCc1ccccc1 (centres unmarked) [Compound 25] | 400 | 361 | 1.1 | >3.0 | greater than 3 mg/kg | at least 10 fold | no emetic behaviour whatsoever | 56 |  |  |  | 
COc1cc(CC2C(=O)NCC2c2ccc(OC)c(OC3CCCC3)c2)ccc1O (centres unmarked) [Compound 26] | 1490 |  |  |  |  |  |  |  |  |  |  | 
COc1ccc(C2CNC(=O)C2)cc1OC1CCCC1 (centres unmarked) [ROLIPRAM ™, reference compound] |  |  |  | 0.3 |  |  |  |  | Emetic signs were also evident | one of the three ferrets | 5 | 65
